Consider 11 compounds from EP4177246A1, “FUSED OXAZEPINES AS INHIBITORS OF PEROXIREDOXINS” (Centro Atlántico del Medicamento, SA, priority 2021, dated 2023).

In one test the test system is MCF-7. Put plainly: MTT cell viability assay, MCF-7 cells. The conditions noted are these: Homo sapiens, MCF7, 48 h drug exposure. In kind it is cell-based. On the procedure:
(§1) Cell viability was assayed by measuring the mitochondrial reduction of the tetrazolium salt 3-(4,5-methyltiazol-2yl)-2,5diphenyl-tetrazolium bromide] (MTT) (Applichen; A2231,0010) [Mosmann T. J Immunol Methods. 1983 16;65(1-2):55-63 (ref. 36); Chuan Y-C et al 2010. Oncogene. 29 (10), 1531-1542 (ref. 37)]. Cells were seeded in 96-well plates in medium (either RPMI, DMEM or McCoys depending on the recommendations from the ATCC) supplemented with 10% FBS (Lonza Cat. N°: 14-502F), 2mM L-Glut (Lonza Cat. N°: BE17-605E) and 100U/ml PEST (Lonza Cat. N°: DE17-605E) at a cell density of 1000-5000 cells/well (96 well plate). Cells were seeded at a density according to their exponential growth phase (normally 1000 to 5000/well). The cells were cultured at 37 °C in the dark in air containing 5% CO2. After 24h either vehicle (0.05% DMSO) or drug were added to culture medium at the indicated concentrations (10 to 0,01microM). After another 48 h, MTT (0.3 mg/ml) was added to cells, followed by incubation for 2-4h at 37 °C in the dark. The medium was then removed and the precipitated formazan was solubilized by the addition of DMSO (200 µL).
(§2) The optical density was measured at 595 nm with the iMark Microplate Reader (BioRad, USA). Data was expressed as percent growth above the level in controls and the results in figures were plotted as means ± SEM of each test point from 3 replicates.
(§3) Statistical analysis. The concentration of drug that provokes 50% reduction of cell viability (IC50) was determined by using non-linear regression analysis and data were fitted to a log concentration vs normalized response curve in GraphPad software v5 (San Diego, CA).

The next test concerns MDA-MB-231. Put plainly: MTT cell viability assay, MDA-MB-231 cells. In kind it is cell-based, human. The conditions noted are these: Homo sapiens, 48 h drug exposure. The method, then: MDA-MB-231 [American Type Culture Collection (ATCC) reference number HTB-26]. This a human breast cancer cell line derived from a metastatic site from a person.
as §1, §2, §3
In general terms: Formazan colour is commonly taken as a measure of viable cells.

The test system of a further test is DU-145. As to the kind of experiment: MTT cell viability assay, DU-145 cells. In kind it is cell-based. The conditions noted are these: Homo sapiens, 48 h drug exposure. On the procedure: DU-145 [American Type Culture Collection (ATCC) reference number HTB-81]. This a human prostate cancer cell line derived from a metastatic site (brain) of a person.
as §1, §2, §3

Another test deals with PANC-1. Put plainly: MTT cell viability assay, PANC-1 cells. In kind it is cell-based. The conditions noted are these: Homo sapiens, 48 h drug exposure. The method, then: PANC-1 [American Type Culture Collection (ATCC) reference number CRL-1469]. This a human cancer cell line derived from the pancreas of a person.
as §1, §2, §3

The test system of another test is K562. Put plainly: MTT cell viability assay, K562 cells. In kind it is cell-based. The conditions noted are these: Homo sapiens, 48 h drug exposure. On the procedure: K562 [American Type Culture Collection (ATCC) reference number CCL-243]. This a human cancer cell line derived from the bone marrow of a person with CML.
as §1, §2, §3

Turning to `O=C1C2=C(C(=O)c3ccccc31)N(c1cccnc1)Cc1ccccc1O2` [Compound 4, 12-(pyridin-3-yl)-12,13-dihydrobenzo[f]naphtho[2,3-b][1,4]oxazepine-6,11-dione], the half-maximal inhibitory concentration (IC50) (as a rule, the concentration that inhibits the measured activity by half) came to 5.12 µM in the test with MCF-7; 1.52 µM with MDA-MB-231; 8.9 µM with DU-145; 4.36 µM in the test on PANC-1; 0.98 µM in the test with K562.

`N#Cc1cccc(N2Cc3ccccc3OC3=C2C(=O)c2c(O)ccc(O)c2C3=O)c1` [Compound 9, 3-(7,10-dihydroxy-6,11-dioxo-6,11-dihydrobenzo[f]naphtho[2,3-b][1,4]oxazepin-12(13H)-yl)benzonitrile]: the IC50 in the test with MCF-7 amounted to 1.15 µM; with MDA-MB-231, 0.38 µM; in the test with DU-145, 2.53 µM; in the test with PANC-1, 0.46 µM; with K562, 0.08 µM.

As to `NC(=O)c1ccc(N2Cc3ccccc3OC3=C2C(=O)c2c(O)ccc(O)c2C3=O)cc1` [Compound 10, 4-(7,10-dihydroxy-6,11-dioxo-6,11-dihydrobenzo[f]naphtho[2,3-b][1,4]oxazepin-12(13H)-yl)benzamide], the half-maximal inhibitory concentration (IC50) with MCF-7 came to 1.85 µM; in the test with MDA-MB-231, 0.63 µM; in the test with DU-145 it was 6.18 µM; in the test on PANC-1 it was 0.36 µM; with K562 it was 0.09 µM.

`COc1ccc2c(c1)OC1=C(C(=O)c3c(O)ccc(O)c3C1=O)N(C(=O)c1ccc(C#N)cc1)C2` [Compound 13]: the IC50 in the test with MCF-7 was 2.75 µM; in the test on MDA-MB-231, 0.78 µM; in the test on DU-145, 3.72 µM; in the test on PANC-1, 0.46 µM; in the test with K562 it was 0.32 µM.

`NS(=O)(=O)c1ccc(N2Cc3cc(F)ccc3OC3=C2C(=O)c2c(O)ccc(O)c2C3=O)cc1` [Compound 23]: the IC50 in the test with MCF-7 was found to be 3.23 µM; with MDA-MB-231, 2.54 µM; in the test on DU-145, 8.16 µM; in the test with PANC-1, 0.57 µM; in the test on K562, 0.54 µM.

Consider `COc1cccc2c1OC1=C(C(=O)c3c(O)ccc(O)c3C1=O)N(c1ccc(C#N)cc1)C2` [Compound 26], for which the half-maximal inhibitory concentration (IC50) in the test on MCF-7 came to 3.17 µM; with MDA-MB-231, 0.39 µM; with DU-145 it was 7.35 µM; in the test with PANC-1 it was 0.47 µM; in the test on K562, 0.13 µM.

In the case of `NC(=O)c1ccc(N2Cc3cc(Cl)ccc3OC3=C2C(=O)c2c(O)ccc(O)c2C3=O)cc1` [Compound 41], the IC50 in the test with MCF-7 was 1.53 µM; in the test on MDA-MB-231, 0.98 µM; in the test on DU-145, 3.74 µM; in the test on PANC-1, 0.39 µM; with K562, 0.22 µM.

For the compound `CN1CCN(c2ccc(N3Cc4ccccc4OC4=C3C(=O)c3ccccc3C4=O)cn2)CC1` [Compound 100, 12-(6-(4-methylpiperazin-1-yl)pyridin-3-yl)-12,13-dihydrobenzo[f]naphtho [2,3-b][1,4]oxazepine-6,11-dione], the half-maximal inhibitory concentration (IC50) with MCF-7 came to 1.95 µM; with MDA-MB-231, 1.63 µM; in the test on DU-145, 3.4 µM; with PANC-1 it was 1.8 µM.

For the compound `CN(C)c1ccc(N2Cc3ccccc3OC3=C2C(=O)c2cccc(O)c2C3=O)cn1` [Compound 103], the 50% inhibitory concentration (IC50) turned out to be 1.74 µM in the test on MCF-7, 1.4 µM in the test on MDA-MB-231, 1.8 µM in the test on DU-145 and 1.41 µM with PANC-1.

Turning to `O=C1C2=C(Oc3ccccc3CN2c2ccc(N3CCOCC3)nc2)C(=O)c2c(O)cccc21` [Compound 104], the IC50 in the test on MCF-7 amounted to 1.82 µM; in the test with MDA-MB-231, 1.02 µM; with DU-145 it was 1.6 µM; with PANC-1, 1.23 µM.

For the compound `CN(C)CCNc1ccc(N2Cc3ccccc3OC3=C2C(=O)c2cccc(O)c2C3=O)cn1` [Compound 105], the IC50 in the test on MCF-7 amounted to 1.99 µM; with MDA-MB-231, 0.71 µM; with DU-145 it was 1.51 µM; in the test on PANC-1 it was 0.69 µM.
